Measured values as given in patent publication US20240226115A1, “AXL INHIBITOR COMPOUNDS” (ARCUS BIOSCIENCES, INC., priority 2021, published 2024).

Experiments:
[1] = target: T1, Axl (Homo sapiens, UniProt P30530); test: HTRF KinEASE-TK biochemical potency, AXL; set-up: purchased Invitrogen; details: 5 nM AXL, 700 μM ATP
T1 sequence (P30530 26-894): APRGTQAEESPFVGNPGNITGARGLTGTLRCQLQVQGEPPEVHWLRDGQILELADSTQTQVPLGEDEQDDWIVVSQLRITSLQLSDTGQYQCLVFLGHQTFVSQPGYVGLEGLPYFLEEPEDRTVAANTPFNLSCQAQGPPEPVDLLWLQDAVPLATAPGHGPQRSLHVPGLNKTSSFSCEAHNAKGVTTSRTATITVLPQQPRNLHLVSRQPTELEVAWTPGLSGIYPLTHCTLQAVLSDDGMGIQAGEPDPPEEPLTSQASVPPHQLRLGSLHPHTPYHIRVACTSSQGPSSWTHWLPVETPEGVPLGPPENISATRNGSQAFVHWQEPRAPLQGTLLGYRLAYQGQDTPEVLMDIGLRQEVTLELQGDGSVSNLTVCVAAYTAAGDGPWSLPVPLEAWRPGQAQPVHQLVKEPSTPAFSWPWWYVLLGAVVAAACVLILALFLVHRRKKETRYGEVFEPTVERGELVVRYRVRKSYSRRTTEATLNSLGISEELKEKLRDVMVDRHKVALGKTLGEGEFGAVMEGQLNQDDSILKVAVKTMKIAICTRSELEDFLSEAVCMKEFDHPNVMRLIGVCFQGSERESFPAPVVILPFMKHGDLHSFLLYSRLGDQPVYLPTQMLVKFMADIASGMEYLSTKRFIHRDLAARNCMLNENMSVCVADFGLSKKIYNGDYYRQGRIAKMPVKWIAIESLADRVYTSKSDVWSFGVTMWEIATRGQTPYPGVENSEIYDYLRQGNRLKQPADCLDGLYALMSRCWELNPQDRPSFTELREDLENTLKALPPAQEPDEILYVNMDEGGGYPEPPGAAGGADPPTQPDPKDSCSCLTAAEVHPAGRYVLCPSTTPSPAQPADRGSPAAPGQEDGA
Protocol: Purified recombinant human AXL, TYRO3 and MER proteins were purchased from Invitrogen™. 10 nM AXL, 2 nM TYRO3 or MER were incubated with varying concentrations of compounds in 50 mM HEPES, pH 7.4, 10 mM MgCl2, 0.01% BSA, 1 mM DTT and 2% DMSO in a total volume of 20 μl in a 384-well microplate (Corning™ #3640) at RT for 1 h. The AXL, TYRO3 and MER enzymatic reaction was initiated by transferring 10 μl of enzyme and compound mixture into 10 μl of 1.6 μM TK Substrate-biotin (HTRF® KinEASE-TK kit, Cisbio) and 1400 μM ATP pre-incubated in 50 mM HEPES, pH 7.4, 10 mM MgCl2, 0.01% BSA, 1 mM DTT in a 384-well microplate (Corning™ #3640) at RT, giving the final reaction conditions: 5 nM AXL, 1 nM TYRO3 or MER, 800 nM TK Substrate-biotin and 700 μM ATP in 50 mM HEPES, pH 7.4, 10 mM MgCl2, 0.01% BSA, 1 mM DTT and 1% DMSO with varying concentrations of compounds. Following 2 h incubation at RT, the AXL, TYRO3 and MER enzymatic reaction was stopped by transfer of 10 μl of reaction into 10 μl of detection mix (400 nM Streptavidin-XL665, 200-fold dilution TK Antibody-Cryptate and detection buffer, HTRF® KinEASE-TK kit, Cisbio) in a white 384-well microplate (Perkin Elmer, OptiPlate 384). After 1 h incubation at RT, the plate was put into a plate reader (Evision) to read at 665/620 nm (acceptor/donor) for HTRF. The value of the DMSO blank (MIN inhibition=100% activity) was used as a negative control. The positive control was established by adding 5 μl of enzyme and DMSO mixture into 10 μl of detection mix followed by addition of 5 μl of TK Substrate-biotin and ATP mixture (MAX inhibition=0% activity). To calculate the percent activity, Equation 1 was used. Ratio665/620 is the value at a given compound concentration: […]

[2] = target: T1, Axl; test: Axl NanoBRET intracellular kinase assay (Cell Binding); set-up: host or cells: HEK-293; details: HEK-293 cells transfected with Axl-NanoLuc fusion vector; displacement of K-5 NanoBRET tracer
Protocol: Axl NanoBRET™ intracellular kinase assay (Promega, N2540) was performed according to manufacturer's recommendation. In brief, HEK-293 cells are transiently transfected with Axl-NanoLuc fusion vector (Promega, NV1071), utilizing Fugene HD transfection reagent (Promega, E2311) a day before experiment following manufacturer's recommendation.
The day of the assay, the cells were collected and resuspended in Opti-MEM media (ThermoFisher, 31985070) at 2e5 cells/mL concentration. Testing compounds were serial diluted and dispensed into a white 384 well polystyrene plate at 200 nL in 100% DMSO. 40 μL of resuspended cells is then added per well for a final condition of 8K cells/well with 0.5% DMSO. After one-hour compound pre-incubation at 37° C. and 5% CO2, cells were further incubated with 0.35 μM K-5 NanoBRET tracer for two-hours at 37° C. and 5% CO2. […] of 3× substrate plus Inhibitor solution was prepared according to kits manual and added to the cells followed by a 30 second pulse centrifugation spin. The plate was then immediately read utilizing an Envision (Perkin Elmer) plate reader. The BRET signal is measured by taking the ratio of the emissions reading at 610 nm and 450 nm. Compound binding is based on the decrease BRET signal caused by the displacement of the K-5 tracer. […] IC50 value of compounds was determined by 4-parameter non-linear regression fitting of percent activity in GraphPad Prism software.

IC50 [1]	IC50 [2]	Structure (SMILES)
< 100 nM	< 100 nM	O=C1NCCOc2cc(-c3n[nH]c4ncc(-c5ccc6c(c5)CCC(N5CCCC5)CC6)cc34)ccc21 (racemic) [Example 1, 8-{5-[7-(Pyrrolidin-1-yl)-6,7,8,9-tetrahydro-5H-benzo[7]annulen-2-yl]-1H-pyrazolo[3,4-b]pyridin-3-yl}-2,3,4,5-tetrahydro-1,4-benzoxazepin-5-one]
< 100 nM	< 100 nM	O=C1NCCOc2cc(-c3n[nH]c4ncc(-c5ccc6c(c5)CC[C@H](N5CCCC5)CC6)cc34)ccc21 (single isomer, unassigned) [Example 56]
< 100 nM	< 100 nM	O=C1NCCOc2cc(-c3n[nH]c4ncc(-c5ccc6c(c5)CC[C@@H](N5CCCC5)CC6)cc34)ccc21 (single isomer, unassigned) [Example 57]
< 100 nM	< 100 nM	O=C1NCCOc2cc(-c3n[nH]c4ncc(-c5ccc6c(c5)CCC(N5CCCC5)C6)cc34)ccc21 (stereo not shown) [Example 2, 8-{5-[6-(Pyrrolidin-1-yl)-5,6,7,8-tetrahydronaphthalen-2-yl]-1H-pyrazolo[3,4-b]pyridin-3-yl}-2,3,4,5-tetrahydro-1,4-benzoxazepin-5-one]
< 100 nM	100 to 1000 nM	O=C1NCCOc2cc(-c3n[nH]c4ncc(-c5ccc6c(c5)CC(N5CCCC5)CC6)cc34)ccc21 (stereo not shown) [Example 3, 8-{5-[7-(Pyrrolidin-1-yl)-5,6,7,8-tetrahydronaphthalen-2-yl]-1H-pyrazolo[3,4-b]pyridin-3-yl}-2,3,4,5-tetrahydro-1,4-benzoxazepin-5-one]
< 100 nM	< 100 nM	O=C1NCCOc2cc(-c3n[nH]c4ncc(-c5ccc6c(c5)CCC(N[C@H]5CCOC5)C6)cc34)ccc21 (stereo partly drawn) [Example 4, 8-[5-(6-{[(3S)—Oxolan-3-yl]amino}-5,6,7,8-tetrahydronaphthalen-2-yl)-1H-pyrazolo[3,4-b]pyridin-3-yl]-2,3,4,5-tetrahydro-1,4-benzoxazepin-5-one]
< 100 nM	< 100 nM	O=C1NCCOc2cc(-c3n[nH]c4ncc(-c5ccc6c(c5)CCC(N[C@@H]5CCOC5)C6)cc34)ccc21 (stereo partly drawn) [Example 5, 8-[5-(6-{[(3R)—Oxolan-3-yl]amino}-5,6,7,8-tetrahydronaphthalen-2-yl)-1H-pyrazolo[3,4-b]pyridin-3-yl]-2,3,4,5-tetrahydro-1,4-benzoxazepin-5-one]
< 100 nM	< 100 nM	C[C@@H]1CCCN1C1CCc2ccc(-c3cnc4[nH]nc(-c5cc(F)c6c(c5)OCCNC6=O)c4c3)cc2CC1 (stereo partly drawn) [Example 6, 6-Fluoro-8-(5-{7-[(2R)-2-methylpyrrolidin-1-yl]-6,7,8,9-tetrahydro-5H-benzo[7]annulen-2-yl}-1H-pyrazolo[3,4-b]pyridin-3-yl)-2,3,4,5-tetrahydro-1,4-benzoxazepin-5-one]
< 100 nM	< 100 nM	O=C1NCCOc2cc(-c3n[nH]c4ncc(-c5ccc6c(c5)CCN(C5CCCC5)CC6)cc34)ccc21 [Example 7, 8-[5-(3-Cyclopentyl-2,3,4,5-tetrahydro-1H-3-benzazepin-7-yl)-1H-pyrazolo[3,4-b]pyridin-3-yl]-2,3,4,5-tetrahydro-1,4-benzoxazepin-5-one]
< 100 nM	< 100 nM	O=C1NCCOc2cc(-c3n[nH]c4ncc(-c5ccc6c(c5)CCN(C5CCCC5)C6)cc34)ccc21 [Example 9, 8-(5-(2-Cyclopentyl-1,2,3,4-tetrahydroisoquinolin-6-yl)-1H-pyrazolo[3,4-b]pyridin-3-yl)-3,4-dihydrobenzo[f][1,4]oxazepin-5(2H)-one]
< 100 nM	100 to 1000 nM	O=C1NCCOc2cc(-c3n[nH]c4ncc(-c5ccc6c(c5)CN(C5CCCC5)CC6)cc34)ccc21 [Example 10, 8-(5-(2-Cyclopentyl-1,2,3,4-tetrahydroisoquinolin-7-yl)-1H-pyrazolo[3,4-b]pyridin-3-yl)-3,4-dihydrobenzo[f][1,4]oxazepin-5(2H)-one]
< 100 nM	100 to 1000 nM	O=C1NCCOc2cc(-c3n[nH]c4ncc(-c5ccc6c(c5)CCN(C5COC5)CC6)cc34)ccc21 [Example 11, 8-(5-(3-(Oxetan-3-yl)-2,3,4,5-tetrahydro-1H-benzo[d]azepin-7-yl)-1H-pyrazolo[3,4-b]pyridin-3-yl)-3,4-dihydrobenzo[f][1,4]oxazepin-5(2H)-one]
< 100 nM	100 to 1000 nM	O=C1NCCOc2cc(-c3n[nH]c4ncc(-c5ccc6c(c5)CCN(C5COC5)C6)cc34)ccc21 [Example 12, 8-(5-(2-(Oxetan-3-yl)-1,2,3,4-tetrahydroisoquinolin-6-yl)-1H-pyrazolo[3,4-b]pyridin-3-yl)-3,4-dihydrobenzo[f][1,4]oxazepin-5(2H)-one]
< 100 nM	100 to 1000 nM	COCCN1CCc2cc(-c3cnc4[nH]nc(-c5ccc6c(c5)OCCNC6=O)c4c3)ccc2C1 [Example 13, 8-(5-(2-(2-Methoxyethyl)-1,2,3,4-tetrahydroisoquinolin-6-yl)-1H-pyrazolo[3,4-b]pyridin-3-yl)-3,4-dihydrobenzo[f][1,4]oxazepin-5(2H)-one]
< 100 nM	< 100 nM	COCCN1CCc2ccc(-c3cnc4[nH]nc(-c5ccc6c(c5)OCCNC6=O)c4c3)cc2CC1 [Example 15, 8-(5-(3-(2-Methoxyethyl)-2,3,4,5-tetrahydro-1H-benzo[d]azepin-7-yl)-1H-pyrazolo[3,4-b]pyridin-3-yl)-3,4-dihydrobenzo[f][1,4]oxazepin-5(2H)-one]
< 100 nM	100 to 1000 nM	CC(C)C(=O)N1CCc2ccc(-c3cnc4[nH]nc(-c5ccc6c(c5)OCCNC6=O)c4c3)cc2CC1 [Example 16, 8-{5-[3-(2-Methylpropanoyl)-2,3,4,5-tetrahydro-1H-3-benzazepin-7-yl]-1H-pyrazolo[3,4-b]pyridin-3-yl}-2,3,4,5-tetrahydro-1,4-benzoxazepin-5-one]
< 100 nM	100 to 1000 nM	O=C1NCCOc2cc(-c3n[nH]c4ncc(-c5ccc6c(c5)CCN(C(=O)C5CC5)CC6)cc34)ccc21 [Example 17, 8-[5-(3-Cyclopropanecarbonyl-2,3,4,5-tetrahydro-1H-3-benzazepin-7-yl)-1H-pyrazolo[3,4-b]pyridin-3-yl]-2,3,4,5-tetrahydro-1,4-benzoxazepin-5-one]
